In series [1] the test system is HeLa cervical cancer cells. In words: Binding of Cy5-labeled oligonucleotide to HeLa cells, flow cytometer. The series is classed as cell-based. Particulars: 500 nM Cy5-labeled, 1.5 h. The method, then:
When AS1411 was selected as the GRO, the model analysis for AS1411 as the novel recruitment element of MDM2 and a PROTAC constructed by using AS1411 as the novel recruitment element of MDM2 was specifically as follows: Since NCL is highly expressed in tumor cells and specifically distributed on the surface of tumor cells, the binding ability of AS1411 to HeLa cervical cancer cells was examined. HeLa cells were incubated with 500 nM CRO (cytosine-rich oligonucleotide, negative control) and AS1411 labeled by Cy5 for 1.5 h. […] AS1411 is set forth in SEQ ID NO: 1, and the sequence of the CRO is set forth in SEQ ID NO: 13.
A general note: Flow cytometry measures light scatter and fluorescence of single cells or particles in a stream.

The nature of series [2]: G4 structural characteristics, N-methyl mesoporphyrin IX (NMM) fluorescent probe. In kind it is physicochemical. Conditions: 1 μM NMM. How it is done: Both AS1411 and iSN04 are oligonucleotides specifically binding to NCL. The sequence of AS1411 is SEQ ID NO: 1, and the sequence of iSN04 is SEQ ID NO: 14. AS1411 contains a plurality of GGT motifs, and iSN04 contains one GGT motif. Whether AS1411 and iSN04 have stable G4 structural characteristics was determined. The experimental process was as follows: 5 μM NC (negative control, SEQ ID NO: 15), AS1411, or iSN04 was added to water, and the total volume was 100 μL. The mixture was heated at 95° C. for 7 min and then immediately incubated on ice for 3 min, followed by the addition of 2 μL of N-methyl mesoporphyrin IX (NMM) (purchased from MCE, Cat. No.: HY-133821) to make a final concentration of 1 μM. The resulting mixture was incubated at room temperature for 1 h in the dark. The fluorescence intensity was detected by a microplate reader, with an emission wavelength of 550-700 nm and an excitation wavelength of […].
Guanine-rich DNA sequences can form more distinct G4 structural characteristics in the presence of metal ions (usually sodium and potassium ions). 5 μM NC (negative control, SEQ ID NO: 15), AS1411, or iSN04 was added to a 100 mM K^+ solution, and the total volume was 100 μL. The mixture was well mixed, heated at 95° C. for 7 min, and then immediately incubated on ice for 3 min, followed by the addition of 2 μL of N-methyl mesoporphyrin IX (NMM) (purchased from MCE, Cat. No.: HY-133821) to make a final concentration of 1 μM. The resulting mixture was incubated at room temperature for 1 h in the dark. The fluorescence intensity was detected by a microplate reader, with an emission wavelength of 550-700 nm and an excitation wavelength of […].

For series [3] the following is noted: phase I and phase II clinical trials; cited from earlier work.
In series [4] the target is T1, MDM2 (Homo sapiens, UniProt Q00987). Kind of series: Pull-down with biotin-labeled AS1411 in HeLa cells transfected with si-NC or si-NCL. In kind it is cell-based. Also on record: HeLa cervical cancer cells were lysed with an IP lysis solution; endogenous in cells; host or cells: HeLa. Particulars: 500 nM biotin-labeled, 6 h, si-NCL vs si-NC. How it is done:
HeLa cells were transfected with negative control siRNA (si-NC, SEQ ID NO: 16) or NCL siRNA (si-NCL, SEQ ID NO: 17) and subsequently incubated with 500 nM biotin-labeled AS1411 for 6 h. After cell lysis, the supernatant was incubated with streptavidin-coated magnetic beads at 4° C. overnight. The bound AS1411 and its captured proteins on the magnetic beads were eluted with an eluent, and the pull-down products were detected by western blot assay.

Series [5] has as its target T1, MDM2. In words: Biotin-oligonucleotide pull-down from HeLa cell lysate, western blot (MDM2). In kind it is binding. More on the design: HeLa cervical cancer cells were lysed with an IP lysis solution; endogenous in cells; host or cells: HeLa. Conditions: 5′-biotin label, 0 nM-20 μM. The method, then:
(§1) HeLa cervical cancer cells were lysed with an IP lysis solution (purchased from Thermo Scientific, Cat. No.: 87788) and then incubated with a CRO (cytosine-rich oligonucleotide, negative control, SEQ ID NO: 13), AS1411, or iSN04 labeled by biotin at the 5′ end at different concentrations (0 nM, 200 nM, 500 nM, 1 μM, 5 μM, 10 μM, and 20 μM) at 4° C. for 6h. Subsequently, streptavidin agarose gel beads (purchased from cytiva, Cat. No.: 17511301) were added, and the mixture was further incubated at 4° C. overnight. After the bound biotin-labeled CRO, AS411, or iSN04 and its captured proteins on the gel beads were washed multiple times with an IP lysis buffer (purchased from Thermo Scientific, Cat. No.: 87788), an SDS-PAGE protein loading buffer (purchased from Beyotime, Cat. No.: P0015) was added, and the mixture was heated to 100° C. and held for 10 min. After centrifugation, the supernatant was collected as a pull-down product. The pull-down product was detected by western blot assay.

For series [6], the target named is NCL (Homo sapiens, UniProt P19338). Kind of series: Biotin-oligonucleotide pull-down from HeLa cell lysate, western blot (NCL). More on the design: HeLa cervical cancer cells were lysed with an IP lysis solution; endogenous in cells; host or cells: HeLa cell lysate. Particulars: 5′-biotin label, 0 nM-20 μM. The series is classed as binding. How it is done: as §1
Sequence of NCL (P19338 whole entry): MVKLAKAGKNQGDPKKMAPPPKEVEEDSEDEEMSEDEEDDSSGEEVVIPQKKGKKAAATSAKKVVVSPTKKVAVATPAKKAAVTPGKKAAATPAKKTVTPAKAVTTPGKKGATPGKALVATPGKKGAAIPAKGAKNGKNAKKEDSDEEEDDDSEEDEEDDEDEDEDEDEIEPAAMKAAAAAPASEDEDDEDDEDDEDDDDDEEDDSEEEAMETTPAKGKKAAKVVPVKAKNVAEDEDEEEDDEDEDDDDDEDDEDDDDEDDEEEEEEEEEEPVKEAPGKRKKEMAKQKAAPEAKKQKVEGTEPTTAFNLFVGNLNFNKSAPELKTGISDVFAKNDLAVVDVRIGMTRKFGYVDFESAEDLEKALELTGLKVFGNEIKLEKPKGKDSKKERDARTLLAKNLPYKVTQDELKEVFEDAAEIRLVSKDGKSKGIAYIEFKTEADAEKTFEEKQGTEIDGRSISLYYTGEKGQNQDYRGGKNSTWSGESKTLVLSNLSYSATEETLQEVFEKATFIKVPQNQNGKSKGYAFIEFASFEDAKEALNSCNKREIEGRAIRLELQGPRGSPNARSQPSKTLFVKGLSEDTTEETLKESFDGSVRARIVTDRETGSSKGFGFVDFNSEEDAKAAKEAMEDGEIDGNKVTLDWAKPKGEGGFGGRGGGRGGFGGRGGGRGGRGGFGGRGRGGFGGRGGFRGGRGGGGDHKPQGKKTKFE

T1 sequence (P19338 2-710 partner limits assumed): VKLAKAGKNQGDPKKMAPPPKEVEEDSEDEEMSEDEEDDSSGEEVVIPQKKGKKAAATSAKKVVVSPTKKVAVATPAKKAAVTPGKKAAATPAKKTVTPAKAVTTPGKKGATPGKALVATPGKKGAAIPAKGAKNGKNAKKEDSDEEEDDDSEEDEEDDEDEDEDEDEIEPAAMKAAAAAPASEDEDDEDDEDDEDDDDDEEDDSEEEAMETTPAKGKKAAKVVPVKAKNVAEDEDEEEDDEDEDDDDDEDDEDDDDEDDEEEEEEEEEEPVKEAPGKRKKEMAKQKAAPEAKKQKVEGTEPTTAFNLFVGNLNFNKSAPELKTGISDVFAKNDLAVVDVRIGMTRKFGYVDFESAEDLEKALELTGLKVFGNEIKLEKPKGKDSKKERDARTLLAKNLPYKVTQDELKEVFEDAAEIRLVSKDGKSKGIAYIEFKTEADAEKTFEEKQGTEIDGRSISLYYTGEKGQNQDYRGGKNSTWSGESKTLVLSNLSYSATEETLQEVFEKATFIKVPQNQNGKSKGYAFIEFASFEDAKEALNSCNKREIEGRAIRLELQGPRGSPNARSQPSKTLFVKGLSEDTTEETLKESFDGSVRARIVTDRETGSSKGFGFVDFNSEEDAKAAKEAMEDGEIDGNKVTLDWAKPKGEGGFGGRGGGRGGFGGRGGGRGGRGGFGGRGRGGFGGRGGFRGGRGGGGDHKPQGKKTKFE
T1 sequence (Q00987 whole entry): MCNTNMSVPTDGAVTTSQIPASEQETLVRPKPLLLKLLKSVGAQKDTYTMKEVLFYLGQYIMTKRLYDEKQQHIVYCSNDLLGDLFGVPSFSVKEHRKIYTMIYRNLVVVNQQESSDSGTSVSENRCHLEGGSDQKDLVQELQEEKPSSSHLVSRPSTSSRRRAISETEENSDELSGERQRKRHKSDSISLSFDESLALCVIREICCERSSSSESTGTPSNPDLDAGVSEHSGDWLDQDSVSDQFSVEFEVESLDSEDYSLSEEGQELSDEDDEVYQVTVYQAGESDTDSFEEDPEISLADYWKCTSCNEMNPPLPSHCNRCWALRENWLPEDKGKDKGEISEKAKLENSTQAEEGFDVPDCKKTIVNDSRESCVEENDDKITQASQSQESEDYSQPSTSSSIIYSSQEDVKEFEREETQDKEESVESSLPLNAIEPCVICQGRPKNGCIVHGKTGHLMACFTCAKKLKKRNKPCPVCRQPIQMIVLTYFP

As to “AS1411: DNA aptamer, GRO binding NCL, SEQ ID NO: 1: 5′-GGTGGTGGTGGTTGTGGTGGTGGTGG-3′”, the “binding ability to HeLa cells” value in series [1] was “can significantly bind to HeLa cells”. Besides, the “G4 structural characteristics (fluorescence signal intensity)” value in series [2] (5 μM in 100 mM K+ solution) was “over 10000”; in series [2] (5 μM in water (no K+)), “over 4000”. Besides, the “safety in clinical trials” value in series [3] was “good safety”. Further, the “recruitment of MDM2 when NCL is silenced” value in series [4] is given as “silencing NCL can block the recruitment of MDM2 by AS1411”. The “capture of MDM2” value in series [5] was “can capture NCL and MDM2 in a concentration-dependent manner”. In addition, the “capture of NCL” value in series [6] was “can capture NCL and MDM2 in a concentration-dependent manner”.

These data come from patent US20260256923A1, “NEW RECRUITMENT ELEMENT OF UBIQUITIN LIGASE AND USE THEREOF” (SHENZHEN LINGGENE BIOTECH CO., LTD., priority 2023, published 2026).
